Values after ≈ are worked out from the molar mass of the structure shown. Values joined by “and” are separate entries in the source; they are usually repeats but may differ in a detail not shown here. Equal values may be shown once.
Key:
Assay in all cases: ≥ marks a high value that may be exact or a test limit, other limits are often not marked, values filed in µg/mL are converted to µM
[1] = system: Pseudomonas aeruginosa M76
[2] = system: Pseudomonas aeruginosa M917
Candida albicans = system: Candida albicans
[3] = system: Stenotrophomonas maltophilia
[4] = system: Pseudomonas aeruginosa M1426
Pseudomonas aeruginosa = system: Pseudomonas aeruginosa
[5] = system: Pseudomonas aeruginosa R70
[6] = system: Salmonella enterica serovar Typhimurium
[7] = system: Pseudomonas aeruginosa PAO1
Pseudomonas fluorescens = system: Pseudomonas fluorescens
Escherichia coli UB1005 = system: Escherichia coli UB1005
Ralstonia pickettii = system: Ralstonia pickettii
[8] = system: Achromobacter xylosoxidans
[9] = system: Pseudomonas aeruginosa M1251
Staphylococcus aureus = system: Staphylococcus aureus
[10] = system: Corynebacterium pseudotuberculosis ATCC 19410
[11] = system: Mannheimia haemolytica Serovar 6
[12] = system: Mannheimia haemolytica Serovar 2
Aspergillus fumigatus = system: Aspergillus fumigatus
Bibersteinia trehalosi = system: Bibersteinia trehalosi
[13] = system: Salmonella enterica subsp. arizonae
Klebsiella pneumoniae = system: Klebsiella pneumoniae
Pasteurella multocida = system: Pasteurella multocida
[14] = system: Mannheimia haemolytica Serovar 1
[15] = system: Pseudomonas aeruginosa H744
[16] = system: Salmonella enterica subsp. enterica serovar Typhimurium ATCC 14028s
[17] = system: Pseudomonas aeruginosa K799
[18] = system: Pseudomonas aeruginosa Z61
[19] = system: Pseudomonas aeruginosa H374
[20] = system: Pseudomonas aeruginosa H547
[21] = system: Staphylococcus aureus ATCC BAA-1556
[22] = system: Pseudomonas aeruginosa wt
[23] = system: Enterococcus faecalis ATCC 29212
[24] = system: Staphylococcus aureus ATCC 25923
[25] = system: Pseudomonas aeruginosa ATCC 27853
[26] = system: Escherichia coli ATCC 25922
Streptococcus agalactiae = system: Streptococcus agalactiae
[27] = system: Acinetobacter calcoaceticus
[28] = system: Bacillus subtilis ATCC 6633
[29] = system: Staphylococcus aureus FDA 209P

CC(C)C[C@H](NC(=O)[C@H](C)NC(=O)[C@H](CC(C)C)NC(=O)[C@H](C)NC(=O)[C@H](CC(C)C)NC(=O)[C@H](CCCCN)NC(=O)[C@H](C)NC(=O)[C@H](CC(C)C)NC(=O)[C@H](CCCCN)NC(=O)[C@H](CCCCN)NC(=O)[C@H](C)NC(=O)[C@H](CC(C)C)NC(=O)[C@H](CCCCN)NC(=O)[C@H](C)NC(=O)[C@H](CC(C)C)NC(=O)[C@H](CCCCN)NC(=O)[C@H](CCCCN)NC(=O)[C@H](C)NC(=O)[C@@H](N)C(C)C)C(N)=O [VAKKLAKLAKKLAKLALAL]
MIC [1]: 4.02 µM (≈ 8 µg/mL) | MIC [2]: 8.03 µM (≈ 16 µg/mL) | MIC (Candida albicans): 8.03 µM (≈ 16 µg/mL) | MIC [3]: 2.01 µM (≈ 4 µg/mL) | MIC [4]: 4.02 µM (≈ 8 µg/mL) | MIC (Pseudomonas aeruginosa): 4.02 µM and 5.68 µM | MIC [5]: 4.02 µM (≈ 8 µg/mL) | MIC [6]: ≥ 32.1 µM | MIC [7]: 16.1 µM (≈ 32 µg/mL) | MIC (Pseudomonas fluorescens): 4.02 µM (≈ 8 µg/mL) | MIC (Escherichia coli UB1005): ≥ 32.1 µM | MIC (Ralstonia pickettii): 4.02 µM (≈ 8 µg/mL) | MIC [8]: ≥ 32.1 µM | MIC [9]: 4.02 µM (≈ 8 µg/mL) | MIC (Staphylococcus aureus): 16.1 µM (≈ 32 µg/mL)

CC[C@H](C)[C@H](NC(=O)[C@@H](NC(=O)[C@H](Cc1cnc[nH]1)NC(=O)[C@@H](NC(=O)[C@@H](NC(=O)[C@H](CCCCN)NC(=O)[C@H](CCCN=C(N)N)NC(=O)[C@@H](NC(=O)[C@@H](NC(=O)[C@H](CCCN=C(N)N)NC(=O)[C@@H](N)CCCN=C(N)N)[C@@H](C)CC)[C@@H](C)CC)[C@@H](C)CC)[C@@H](C)CC)[C@@H](C)CC)C(N)=O [RRIIRKIIHII]
MIC [10]: 14 µM (≈ 20 µg/mL) | MIC [11]: 5.8 µM (≈ 8.29 µg/mL) | MIC [12]: 5.8 µM (≈ 8.29 µg/mL) | MIC (Aspergillus fumigatus): 14 µM (≈ 20 µg/mL) | MIC (Bibersteinia trehalosi): 14 µM (≈ 20 µg/mL) | MIC [13]: 14 µM (≈ 20 µg/mL) | MIC (Klebsiella pneumoniae): 10.5 µM (≈ 15 µg/mL) | MIC (Pasteurella multocida): 14 µM (≈ 20 µg/mL) | MIC [7]: 14 µM (≈ 20 µg/mL) | MIC [14]: 11.7 µM (≈ 16.7 µg/mL) | MIC (Staphylococcus aureus): > 14 µM

CC[C@H](C)[C@H](NC(=O)[C@H](CC(C)C)NC(=O)[C@H](C)NC(=O)[C@@H]1CCCN1C(=O)[C@H](CC(C)C)NC(=O)CNC(=O)[C@@H](NC(=O)[C@@H](NC(=O)[C@H](CC(C)C)NC(=O)[C@@H](NC(=O)[C@H](CCCCN)NC(=O)[C@H](CO)NC(=O)CNC(=O)CNC(=O)[C@H](CCCCN)NC(=O)[C@@H](NC(=O)[C@H](CC(C)C)NC(=O)[C@H](CC(N)=O)NC(=O)[C@H](CCCCN)NC(=O)[C@@H](NC(=O)[C@H](Cc1ccccc1)NC(=O)[C@H](CCCCN)NC(=O)[C@H](CCCCN)NC(=O)[C@H](Cc1c[nH]c2ccccc12)NC(=O)[C@@H](N)CCCCN)[C@@H](C)CC)[C@@H](C)O)[C@@H](C)CC)[C@@H](C)O)[C@@H](C)O)C(=O)N[C@@H](CO)C(=O)O [KWKKFIKNLTKGGSKILTTGLPALIS]
MIC [15]: 1.41 µM (≈ 4 µg/mL) | MIC [16]: 5.63 µM (≈ 16 µg/mL) | MIC [17]: 11.3 µM (≈ 32 µg/mL) | MIC [18]: 6.68 µM (≈ 19 µg/mL) | MIC [19]: 1.41 µM (≈ 4 µg/mL) | MIC [20]: 5.63 µM (≈ 16 µg/mL) | MIC (Escherichia coli UB1005): 0.703 µM (≈ 2 µg/mL)

CC(C)C[C@H](NC(=O)[C@H](CC(C)C)NC(=O)[C@H](CCCCN)NC(=O)[C@H](CC(C)C)NC(=O)[C@H](CC(C)C)NC(=O)[C@H](CC(C)C)NC(=O)[C@H](CCCCN)NC(=O)[C@@H](N)CC(C)C)C(N)=O [LKLLLKLL]
MIC [21]: ≥ 100 µM

CC[C@H](C)[C@H](NC(=O)[C@H](C)NC(=O)[C@H](CO)NC(=O)[C@@H](NC(=O)[C@H](C)NC(=O)[C@H](CC(N)=O)NC(=O)[C@@H](NC(=O)[C@H](C)NC(=O)[C@H](Cc1cnc[nH]1)NC(=O)[C@@H]1CCCN1C(=O)[C@@H](NC(=O)[C@H](CC(C)C)NC(=O)[C@H](CO)NC(=O)[C@H](CC(C)C)NC(=O)[C@@H](N)Cc1ccccc1)[C@@H](C)CC)[C@@H](C)CC)C(C)C)C(=O)N[C@@H](C)C(=O)N[C@@H](CCCCN)C(=O)N[C@@H](Cc1cnc[nH]1)C(=O)N[C@@H](CC(N)=O)C(N)=O [FLSLIPHAINAVSAIAKHN]
MIC [22]: 3 µM (≈ 6.05 µg/mL) | MIC [23]: 4 µM (≈ 8.06 µg/mL) | MIC (Candida albicans): 7.9 µM (≈ 15.9 µg/mL) | MIC [24]: 7.9 µM (≈ 15.9 µg/mL) | MIC [25]: 4 µM (≈ 8.06 µg/mL) | MIC (Pseudomonas aeruginosa): 31.7 µM (≈ 63.9 µg/mL) | MIC [26]: 7.9 µM (≈ 15.9 µg/mL) | MIC (Streptococcus agalactiae): 3.9 µM (≈ 7.86 µg/mL) | MIC [27]: 7.9 µM (≈ 15.9 µg/mL) | MIC (Staphylococcus aureus): 15.8 µM (≈ 31.8 µg/mL)

CC[C@H](C)[C@H](NC(=O)[C@@H](N)C(C)C)C(=O)N[C@@H](CC(=O)O)C(=O)N[C@@H](CC(=O)O)C(=O)N[C@@H](CC(C)C)C(=O)N[C@@H](CCCCN)C(=O)N[C@@H](CCCCN)C(=O)N[C@H](C(=O)N[C@@H](C)C(=O)N[C@@H](CCCCN)C(=O)N[C@@H](CCCCN)C(=O)N[C@H](C(=O)N[C@@H](CCCN=C(N)N)C(=O)N[C@@H](CCCN=C(N)N)C(=O)N[C@@H](CCC(=O)O)C(=O)N[C@@H](CC(C)C)C(=O)N[C@@H](CC(C)C)C(=O)N[C@@H](CS)C(=O)N[C@@H](CCCCN)C(=O)N[C@@H](CCCCN)C(=O)N[C@@H](Cc1cnc[nH]1)C(=O)N[C@@H](Cc1cnc[nH]1)C(=O)N[C@@H](CCCCN)C(=O)N[C@@H](CCCCN)C(=O)N[C@@H](CC(C)C)C(=O)N[C@@H](CC(N)=O)C(=O)O)C(C)C)C(C)C [VIDDLKKVAKKVRRELLCKKHHKKLN]
MIC [28]: 20.4 µM (≈ 64 µg/mL) | MIC [29]: 11.3 µM (≈ 35.5 µg/mL)
